This note sets out measurements from PubChem BioAssay (NCI).

Each structure is given as a SMILES string.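 Assay format: 96-well plates, 48-hour exposure. TGI is the concentration that stops growth completely.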

For the first assay, the system named is HOP-62 NSCLC. Briefly: inhibition of tumour cell growth, NCI panel, 48 h.
For the molecule `c1ccc(SC2CCSc3ccccc3C2Sc2ccccc2)cc1` (centres undefined), the TGI was above 100 µM.
Still for that read-out and setting: the value for `COC(=O)[C@]1(C)CCCC2(C)C1CC[C@H]1C=C(C)[C@H]3CCC12C3` (some centres undefined) was above 100 µM.
Same read-out and setting: the result for `O=C(Nc1cc(Cl)ccc1Cl)c1cc2cccc(Cl)c2oc1=O` reads above 100 µM.
On the same count and under the same terms, the result for `Cc1ccc(Cn2c(C)nc3c2C(=O)c2ccccc2C3=O)cc1` reads 42.1 µM.
Consider `CCOC(=O)C(C)(C)Oc1ccc2c(C)c(-c3ccc(Cl)cc3)c(=O)oc2c1`, for which the TGI was above 100 µM.
Same read-out and setting: the result for `COc1ccc(NC(=O)/C(N=O)=C(/C)O)cc1` reads above 100 µM; that for `O=C1NC(=S)NNC12c1ccccc1-c1ccccc12`, above 10 µM; that for `O=C(NC(=O)c1cn(CCNCCO)c(=O)[nH]c1=O)OCc1ccccc1`, above 100 µM.
For the molecule `CCC1C2C=CC(CC2)N1S(=O)(=O)c1ccc(C)cc1` (centres undefined), the TGI is 76.3 µM.
The same measure, in the same setting: the result for `O=C(N/N=C1/C(=O)N(c2ccc(Cl)cc2Cl)C(=O)C(=O)C1c1nc2ccccc2o1)c1ccccc1O` (centres undefined) reads 75.2 µM.
The same measure, in the same setting: the result for `CC(=O)O[C@H]1CCC2[C@@H]3CCC4=C(O)c5nocc5C[C@]4(C)C3CC[C@@]21C` (some centres undefined) reads above 100 µM; that for `CCOc1ccc2c(c1)[n+]([O-])c(-c1ccccc1Cl)c(N)[n+]2[O-]`, above 100 µM.

A further assay relates to HCC-2998 colon. Briefly: inhibition of tumour cell growth, NCI panel, 48 h.
Regarding `c1ccc(SC2CCSc3ccccc3C2Sc2ccccc2)cc1` (centres undefined), the TGI is above 100 µM.
The same measure, in the same setting: the value for `COC(=O)[C@]1(C)CCCC2(C)C1CC[C@H]1C=C(C)[C@H]3CCC12C3` (some centres undefined) was above 100 µM; that for `Cc1ccc(Cn2c(C)nc3c2C(=O)c2ccccc2C3=O)cc1` was above 100 µM; that for `CCOC(=O)C(C)(C)Oc1ccc2c(C)c(-c3ccc(Cl)cc3)c(=O)oc2c1` was above 100 µM.
Still for that read-out and setting: the value for `COc1ccc(NC(=O)/C(N=O)=C(/C)O)cc1` was above 100 µM.
Still for that read-out and setting: the result for `O=C1NC(=S)NNC12c1ccccc1-c1ccccc12` reads above 10 µM.
`O=C1[C@@H]2C3c4ccccc4C([C@@H]2C(=O)N1c1ccccc1)S3(=O)=O` yielded a TGI above 100 µM.
On the same count and under the same terms, the value for `O=C(O)[C@H](NS(=O)(=O)c1ccc2ccccc2c1)c1ccccc1` was above 100 µM.

The next assay relates to U251 CNS. Briefly: inhibition of tumour cell growth, NCI panel, 48 h.
For `c1ccc(SC2CCSc3ccccc3C2Sc2ccccc2)cc1` (centres undefined), the TGI was above 100 µM.
Same read-out and setting: the result for `COC(=O)[C@]1(C)CCCC2(C)C1CC[C@H]1C=C(C)[C@H]3CCC12C3` (some centres undefined) reads above 100 µM; that for `O=C(Nc1cc(Cl)ccc1Cl)c1cc2cccc(Cl)c2oc1=O`, above 100 µM; that for `Cc1ccc(Cn2c(C)nc3c2C(=O)c2ccccc2C3=O)cc1`, 22.8 µM.
Still for that read-out and setting: the value for `CCOC(=O)C(C)(C)Oc1ccc2c(C)c(-c3ccc(Cl)cc3)c(=O)oc2c1` was above 100 µM; that for `COc1ccc(NC(=O)/C(N=O)=C(/C)O)cc1` was above 100 µM.
The same measure, in the same setting: the result for `O=C1NC(=S)NNC12c1ccccc1-c1ccccc12` reads above 10 µM; that for `O=C(NC(=O)c1cn(CCNCCO)c(=O)[nH]c1=O)OCc1ccccc1`, above 100 µM; that for `CC(=O)O[C@H]1CCC2[C@@H]3CCC4=C(O)c5nocc5C[C@]4(C)C3CC[C@@]21C` (some centres undefined), above 100 µM.
Consider `O=C1[C@@H]2C3c4ccccc4C([C@@H]2C(=O)N1c1ccccc1)S3(=O)=O`, for which the TGI was above 100 µM.
`O=C(O)[C@H](NS(=O)(=O)c1ccc2ccccc2c1)c1ccccc1` had a TGI above 100 µM.
The molecule `CCOc1ccc2c(c1)[n+]([O-])c(-c1ccccc1Cl)c(N)[n+]2[O-]` registered a TGI above 100 µM.

For the next assay, the system named is SF-295 CNS. As to the kind of experiment: inhibition of tumour cell growth, NCI panel, 48 h.
`c1ccc(SC2CCSc3ccccc3C2Sc2ccccc2)cc1` (centres undefined) yielded a TGI above 100 µM.
`COC(=O)[C@]1(C)CCCC2(C)C1CC[C@H]1C=C(C)[C@H]3CCC12C3` (some centres undefined) showed a TGI above 100 µM.
Still for that read-out and setting: the result for `O=C(Nc1cc(Cl)ccc1Cl)c1cc2cccc(Cl)c2oc1=O` reads above 100 µM; that for `Cc1ccc(Cn2c(C)nc3c2C(=O)c2ccccc2C3=O)cc1`, 42.9 µM.
The molecule `CCOC(=O)C(C)(C)Oc1ccc2c(C)c(-c3ccc(Cl)cc3)c(=O)oc2c1` gave a TGI above 100 µM.
The same measure, in the same setting: the value for `COc1ccc(NC(=O)/C(N=O)=C(/C)O)cc1` was above 100 µM; that for `O=C(NC(=O)c1cn(CCNCCO)c(=O)[nH]c1=O)OCc1ccccc1` was above 100 µM.
Same read-out and setting: the value for `CCC1C2C=CC(CC2)N1S(=O)(=O)c1ccc(C)cc1` (centres undefined) was above 100 µM; that for `CC(=O)O[C@H]1CCC2[C@@H]3CCC4=C(O)c5nocc5C[C@]4(C)C3CC[C@@]21C` (some centres undefined) was above 100 µM.
With `O=C1[C@@H]2C3c4ccccc4C([C@@H]2C(=O)N1c1ccccc1)S3(=O)=O`, the TGI was above 100 µM.
As to `CCOc1ccc2c(c1)[n+]([O-])c(-c1ccccc1Cl)c(N)[n+]2[O-]`, the TGI is above 100 µM.

For another assay, the system named is OVCAR-3 ovarian. Briefly: inhibition of tumour cell growth, NCI panel, 48 h.
`c1ccc(SC2CCSc3ccccc3C2Sc2ccccc2)cc1` (centres undefined): the TGI is above 100 µM.
In turn, `COC(=O)[C@]1(C)CCCC2(C)C1CC[C@H]1C=C(C)[C@H]3CCC12C3` (some centres undefined) had a TGI above 100 µM.
On the same count and under the same terms, the result for `O=C(Nc1cc(Cl)ccc1Cl)c1cc2cccc(Cl)c2oc1=O` reads above 100 µM; that for `Cc1ccc(Cn2c(C)nc3c2C(=O)c2ccccc2C3=O)cc1`, 36.6 µM.
The same measure, in the same setting: the value for `CCOC(=O)C(C)(C)Oc1ccc2c(C)c(-c3ccc(Cl)cc3)c(=O)oc2c1` was above 100 µM; that for `O=C(NC(=O)c1cn(CCNCCO)c(=O)[nH]c1=O)OCc1ccccc1` was above 100 µM.
